What was measured:
Assay in all cases: relative viability (nuclei count vs DMSO), 5 days (fraction); higher = more cells survive
IPA-3 + Luminespib = compound: C1=CC=C2C(=C1)C=CC(=C2SSC3=C(C=CC4=CC=CC=C43)O)O [IPA-3] + CCNC(=O)c1noc(-c2cc(C(C)C)c(O)cc2O)c1-c1ccc(CN2CCOCC2)cc1 [Luminespib] (partner 0.01 µM)
Procedure, shortened: (§1)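 Nuclei were stained with Hoechst during a one-step fixation (final 0.05% Triton X-100, 1% formaldehyde, 1 ug/ml Hoechst) carried out 5 days after dosing, then counted on 4× images. The cells, lung cancer lines in 1536-well plates, had been dosed by pin tool the day after seeding with one drug alone or a fixed anchor-drug dose plus five library-drug doses (not always all listed) in √10 steps. Relative viability is the nuclei count in treated wells divided by that in vehicle wells, and each value is the median of duplicate plates.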

Doramapimod + Foretinib = compound: Cc1ccc(-n2nc(C(C)(C)C)cc2NC(=O)Nc2ccc(OCCN3CCOCC3)c3ccccc23)cc1 [Doramapimod] + COc1cc2c(Oc3ccc(NC(=O)C4(C(=O)Nc5ccc(F)cc5)CC4)cc3F)ccnc2cc1OCCCN1CCOCC1 [Foretinib] (partner 0.25 µM)
Procedure, shortened: as §1

RAF265 + OSI-027 = compound: Cn1c(Nc2ccc(C(F)(F)F)cc2)nc2cc(Oc3ccnc(-c4ncc(C(F)(F)F)[nH]4)c3)ccc21 [RAF265] + COc1cccc2cc(-c3nc([C@H]4CC[C@H](C(=O)O)CC4)n4ncnc(N)c34)[nH]c12 [OSI-027] (partner 0.5 µM)
Procedure, shortened: as §1

IPA-3 + Pemetrexed = compound: C1=CC=C2C(=C1)C=CC(=C2SSC3=C(C=CC4=CC=CC=C43)O)O [IPA-3] + Nc1nc2[nH]cc(CCc3ccc(C(=O)N[C@@H](CCC(=O)O)C(=O)O)cc3)c2c(=O)[nH]1 [Pemetrexed] (partner 0.2 µM)
Procedure, shortened: as §1

Cell Line | relative viability (IPA-3 + Luminespib; first compound 0.2 µM) | relative viability (IPA-3 + Luminespib; first compound 0.6325 µM) | relative viability (IPA-3 + Luminespib; first compound 2 µM) | relative viability (IPA-3 + Luminespib; first compound 6.325 µM) | relative viability (IPA-3 + Luminespib; first compound 20 µM) | relative viability (Doramapimod + Foretinib; first compound 0.02 µM) | relative viability (Doramapimod + Foretinib; first compound 0.06325 µM) | relative viability (Doramapimod + Foretinib; first compound 0.2 µM) | relative viability (Doramapimod + Foretinib; first compound 0.6325 µM) | relative viability (Doramapimod + Foretinib; first compound 2 µM) | relative viability (RAF265 + OSI-027; first compound 0.01 µM) | relative viability (RAF265 + OSI-027; first compound 0.03162 µM) | relative viability (RAF265 + OSI-027; first compound 0.1 µM) | relative viability (RAF265 + OSI-027; first compound 1 µM) | relative viability (IPA-3 + Pemetrexed; first compound 0.2 µM) | relative viability (IPA-3 + Pemetrexed; first compound 0.6325 µM) | relative viability (IPA-3 + Pemetrexed; first compound 2 µM) | relative viability (IPA-3 + Pemetrexed; first compound 6.325 µM) | relative viability (IPA-3 + Pemetrexed; first compound 20 µM) | relative viability (RAF265 + OSI-027; first compound 0.3162 µM)
NCI-H3122 | 0.0957 | 0.0861 | 0.108 | 0.074 | 0.116 | 0.921 | 0.911 | 0.922 | 0.963 | 0.993 | 0.971 | 1.1 | 0.948 | 0.42 | 0.189 | 0.197 | 0.192 | 0.207 | 0.211 | 
NCI-H1395 | 0.726 | 0.671 | 0.6 | 0.601 | 0.699 | 0.948 | 0.925 | 0.991 | 0.991 | 0.933 | 0.72 | 0.571 | 0.638 | 0.487 | 0.925 | 0.842 | 0.822 | 0.887 | 0.912 | 0.537
NCI-H647 | 0.192 | 0.148 | 0.176 | 0.142 | 0.102 | 0.903 | 1.07 | 1.25 | 1.29 | 1.16 | 0.598 | 0.618 | 0.417 | 0.213 | 0.164 | 0.162 | 0.209 | 0.134 | 0.089 | 0.246
NCI-H650 | 0.964 | 0.851 | 0.733 | 0.805 | 1.06 | 1.07 | 1.12 | 1.18 | 1.08 | 1.03 | 0.52 | 0.468 | 0.491 | 0.279 | 1.22 | 0.873 | 1.03 | 0.852 | 1.15 | 0.411
EKVX | 0.826 | 0.781 | 0.867 | 0.938 | 1.01 | 0.831 | 0.829 | 0.789 | 0.746 | 0.764 | 0.689 | 0.666 | 0.744 | 0.534 | 0.407 | 0.439 | 0.429 | 0.426 | 0.582 | 0.483
NCI-H460 | 0.0346 | 0.0286 | 0.0329 | 0.0351 | 0.0331 | 1.08 | 1.04 | 1.02 | 1.17 | 0.973 | 0.696 | 0.627 | 0.416 | 0.0945 | 0.0552 | 0.0621 | 0.0636 | 0.0626 | 0.0707 | 0.222
LCLC-97TM1 | 0.99 | 0.733 | 0.608 | 0.855 | 0.783 | 0.842 | 1.02 | 0.895 | 0.94 | 0.819 | 0.516 | 0.328 | 0.215 | 0.0767 | 0.165 | 0.184 | 0.164 | 0.148 | 0.179 | 0.416
COR-L23 | 0.866 | 0.627 | 0.725 | 0.643 | 0.48 | 0.945 | 0.926 | 0.966 | 1.01 | 0.855 | 0.843 | 0.723 | 0.501 | 0.168 | 0.212 | 0.194 | 0.193 | 0.198 | 0.204 | 0.278
NCI-H1355 | 0.889 | 0.677 | 0.719 | 0.702 | 0.757 | 0.95 | 0.986 | 0.922 | 0.972 | 0.939 | 0.461 | 0.314 | 0.3 | 0.217 | 1.13 | 1.08 | 1 | 1.06 | 0.945 | 0.251
NCI-H1666 | 1.06 | 0.972 | 1.04 | 1.16 | 1.34 | 0.948 | 1.05 | 1.02 | 1.08 | 0.971 | 0.89 | 0.716 | 0.774 | 0.598 | 0.842 | 0.853 | 0.874 | 0.796 | 0.83 | 0.739
EPLC-272H | 0.469 | 0.473 | 0.352 | 0.416 | 0.553 | 0.776 | 0.658 | 0.788 | 0.934 | 0.57 | 0.251 | 0.288 | 0.237 | 0.184 | 0.415 | 0.309 | 0.337 | 0.355 | 0.371 | 0.218
ChaGo-K-1 | 0.734 | 0.539 | 0.58 | 0.632 | 0.58 | 0.922 | 0.907 | 0.892 | 0.949 | 0.831 | 0.563 | 0.628 | 0.5 | 0.38 | 0.257 | 0.264 | 0.272 | 0.281 | 0.263 | 0.44
NCI-H1651 | 1.04 | 0.768 | 0.853 | 0.959 | 1.02 | 0.912 | 0.777 | 0.841 | 0.793 | 0.869 | 0.783 | 0.776 | 0.695 | 0.362 | 0.602 | 0.606 | 0.621 | 0.591 | 0.679 | 0.52

From the supplement of paper PMC10307832
